Measurements published in patent US9260417B2, “Therapeutic methods and compositions involving allosteric kinase inhibition” (AMITECH THERAPEUTIC SOLUTIONS, INC., priority 2010, dated 2016).

How the values were obtained:
CDC2L1 = CDC2L1 (Homo sapiens (Human), UniProt P21127); assay: KINOMEscan competitive binding assay; settings: 10 uM
B-RAF/C-RAF dimerization = B-RAF/C-RAF dimerization (Homo sapiens (Human), UniProt P15056); assay: B-RAF/C-RAF dimerization in XPA-1 pancreatic cancer cells (immunoprecipitation/Western); type: cell-based; settings: XPA-1 cells
XPA1-RFP = assay: Tumor cell viability; type: cell-based, human; settings: Pancreatic AC XPA1-RFP, K-Ras
Procedure: (§1) For XTT assays, cells were grown in 96-well plates overnight and all assays were conducted in growth medium will full serum and additives. Compounds were serially diluted in DMSO and then further diluted into the medium to give the appropriate concentration while minimizing precipitation associated with serial diluting in medium alone Inhibitors were added for 72 h and cell viability was quantified at 450 nm after the addition of 1 mg/ml XTT solution (Sigma-Aldrich) in phenol-red free DMEM medium containing […] (Sigma-Aldrich). Dose-response curves were plotted using GraphPad Prism software and EC50s were calculated using this program.

1205Lu = assay: Tumor cell viability; type: cell-based, human; settings: Melanoma 1205Lu, B-RAF V600E
Procedure: as §1

CDK5 = CDK5 (Homo sapiens (Human), UniProt Q00535); assay: KINOMEscan competitive binding assay; settings: 10 uM
From the text: (§2) In vitro kinase screen and competitive binding assay. Sorafenib as well as test compounds were submitted to Invitrogen and screened using their SelectScreen™ Profiling Service.

RIPK1 = RIPK1 (Homo sapiens (Human), UniProt Q13546); assay: KINOMEscan competitive binding assay; settings: 10 uM
From the text: as §2

IGF1R = IGF1R (Homo sapiens (Human), UniProt P08069); assay: KINOMEscan competitive binding assay; settings: 10 uM
From the text: as §2

KIT(D616V) = assay: KINOMEscan competitive binding assay; settings: 10 uM
From the text: as §2

JNK1 = JNK1 (Homo sapiens (Human), UniProt P45983); assay: KINOMEscan competitive binding assay; settings: 10 uM
From the text: as §2

FLT3(D835H) = FLT3(D835H) (Homo sapiens (Human), UniProt P36888, D835H); assay: KINOMEscan competitive binding assay; settings: 10 uM
From the text: as §2

FLT3 D835Y = FLT3 D835Y (Homo sapiens (Human), UniProt P36888, D835Y); assay: KINOMEscan competitive binding assay; settings: 10 uM
From the text: as §2

KIT(V559D) = KIT(V559D) (Homo sapiens (Human), UniProt P10721, V559D); assay: KINOMEscan competitive binding assay; settings: 10 uM
From the text: as §2

MEK1 = MEK1 (Homo sapiens (Human), UniProt Q02750); assay: KINOMEscan competitive binding assay; settings: 10 uM
From the text: as §2

PIK3CA = PIK3CA (Homo sapiens (Human), UniProt P42336); assay: KINOMEscan competitive binding assay; settings: 10 uM
From the text: as §2

AXL = AXL (Homo sapiens (Human), UniProt P30530); assay: KINOMEscan competitive binding assay; settings: 10 uM
From the text: as §2

EPHB4 = EPHB4 (Homo sapiens (Human), UniProt P54760); assay: KINOMEscan competitive binding assay; settings: 10 uM
From the text: as §2

PRKCD = PRKCD (Homo sapiens (Human), UniProt Q05655); assay: KINOMEscan competitive binding assay; settings: 10 uM
From the text: as §2

FAK = FAK (Homo sapiens (Human), UniProt Q05397); assay: KINOMEscan competitive binding assay; settings: 10 uM
From the text: as §2

AMPK-alpha1 = AMPK-alpha1 (Homo sapiens (Human), UniProt Q13131); assay: KINOMEscan competitive binding assay; settings: 10 uM
From the text: as §2

BMX = BMX (Homo sapiens (Human), UniProt P51813); assay: KINOMEscan competitive binding assay; settings: 10 uM
From the text: as §2

FLT1 = FLT1 (Homo sapiens (Human), UniProt P17948); assay: KINOMEscan competitive binding assay; settings: 10 uM
From the text: as §2

PAK4 = PAK4 (Homo sapiens (Human), UniProt O96013); assay: KINOMEscan competitive binding assay; settings: 10 uM
From the text: as §2

RIOK3 = RIOK3 (Homo sapiens (Human), UniProt O14730); assay: KINOMEscan competitive binding assay; settings: 10 uM
From the text: as §2

CLK2 = CLK2 (Homo sapiens (Human), UniProt P49760); assay: KINOMEscan competitive binding assay; settings: 10 uM
From the text: as §2

KIT(V559D, V654A) = KIT(V559D, V654A) (Homo sapiens (Human), UniProt P10721, V559D/V654A); assay: KINOMEscan competitive binding assay; settings: 10 uM
From the text: as §2

FLT3(ITD) = assay: KINOMEscan competitive binding assay; settings: 10 uM
From the text: as §2

FLT4 = FLT4 (Homo sapiens (Human), UniProt P35916); assay: KINOMEscan competitive binding assay; settings: 10 uM
From the text: as §2

FLT3(N841I) = FLT3(N841I) (Homo sapiens (Human), UniProt P36888, N841I); assay: KINOMEscan competitive binding assay; settings: 10 uM
From the text: as §2

CDK9 = CDK9 (Homo sapiens (Human), UniProt P50750); assay: KINOMEscan competitive binding assay; settings: 10 uM
From the text: as §2

PRKD1 = PRKD1 (Homo sapiens (Human), UniProt Q15139); assay: KINOMEscan competitive binding assay; settings: 10 uM
[1] = test system: VEGF-C induced lymphangiogenesis; assay: Lymph node lymphangiogenesis model (VEGF-C Matrigel); type: in vivo, mice; settings: 200 μl of 5.25 mg/ml ip twice daily, 7 days
Procedure: (FIG. 12A) Images of local lymph node lymphangiogenesis model between saline and VEGF-C matrigel.
Lymphangiogenesis assays were performed by subcutaneously injecting 350 μl of cold Matrigel containing saline or […] of VEGF-C(R&D Systems, Minneapolis, Minn.) into wild-type C57B1/6 mice. […] After 7 days, lymph nodes were removed, embedded in OCT, frozen and sectioned. Thin sections (5 μm) were fixed in ice cold acetone for five minutes, permeabilized in 0.1% Triton X-100 in phosphate buffered saline (PBS), blocked in 8% normal donkey serum diluted in PBS for 1.5 hours at room temperature and then incubated with 2 μg/ml anti-murine Lyve-1 (RDI-103PA50) in 8% normal donkey serum diluted in saline overnight at 4° C. After extensive washing, slides were incubated with 1 μg/ml cross-absorbed donkey anti-rabbit IgG (H+L) conjugated with Alexa Fluor 488 (Invitrogen). Slides were counterstained with DAPI. Coverslips were mounted with Dako Cytomation fluorescent mounting medium (Dako Corporation, Carpinteria, Calif.). At least five microscopic fields per tissue section/mouse were analyzed for quantification studies.

PFTK1 = PFTK1 (Homo sapiens (Human), UniProt O94921); assay: KINOMEscan competitive binding assay; settings: 10 uM
Chain of PFTK1 (O94921 whole entry): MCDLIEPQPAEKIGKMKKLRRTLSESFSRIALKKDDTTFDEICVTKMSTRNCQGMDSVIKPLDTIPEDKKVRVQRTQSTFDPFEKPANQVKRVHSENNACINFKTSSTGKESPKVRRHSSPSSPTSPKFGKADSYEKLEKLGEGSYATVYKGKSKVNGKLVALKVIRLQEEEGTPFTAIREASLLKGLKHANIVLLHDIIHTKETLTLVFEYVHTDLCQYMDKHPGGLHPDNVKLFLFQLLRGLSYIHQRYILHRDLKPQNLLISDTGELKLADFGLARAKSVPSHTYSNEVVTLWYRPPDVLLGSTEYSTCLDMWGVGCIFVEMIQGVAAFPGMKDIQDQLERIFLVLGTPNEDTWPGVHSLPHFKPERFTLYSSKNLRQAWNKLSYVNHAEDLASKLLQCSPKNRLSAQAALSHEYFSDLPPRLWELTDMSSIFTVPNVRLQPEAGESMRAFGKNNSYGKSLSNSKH

Chain of AXL (P30530 26-894): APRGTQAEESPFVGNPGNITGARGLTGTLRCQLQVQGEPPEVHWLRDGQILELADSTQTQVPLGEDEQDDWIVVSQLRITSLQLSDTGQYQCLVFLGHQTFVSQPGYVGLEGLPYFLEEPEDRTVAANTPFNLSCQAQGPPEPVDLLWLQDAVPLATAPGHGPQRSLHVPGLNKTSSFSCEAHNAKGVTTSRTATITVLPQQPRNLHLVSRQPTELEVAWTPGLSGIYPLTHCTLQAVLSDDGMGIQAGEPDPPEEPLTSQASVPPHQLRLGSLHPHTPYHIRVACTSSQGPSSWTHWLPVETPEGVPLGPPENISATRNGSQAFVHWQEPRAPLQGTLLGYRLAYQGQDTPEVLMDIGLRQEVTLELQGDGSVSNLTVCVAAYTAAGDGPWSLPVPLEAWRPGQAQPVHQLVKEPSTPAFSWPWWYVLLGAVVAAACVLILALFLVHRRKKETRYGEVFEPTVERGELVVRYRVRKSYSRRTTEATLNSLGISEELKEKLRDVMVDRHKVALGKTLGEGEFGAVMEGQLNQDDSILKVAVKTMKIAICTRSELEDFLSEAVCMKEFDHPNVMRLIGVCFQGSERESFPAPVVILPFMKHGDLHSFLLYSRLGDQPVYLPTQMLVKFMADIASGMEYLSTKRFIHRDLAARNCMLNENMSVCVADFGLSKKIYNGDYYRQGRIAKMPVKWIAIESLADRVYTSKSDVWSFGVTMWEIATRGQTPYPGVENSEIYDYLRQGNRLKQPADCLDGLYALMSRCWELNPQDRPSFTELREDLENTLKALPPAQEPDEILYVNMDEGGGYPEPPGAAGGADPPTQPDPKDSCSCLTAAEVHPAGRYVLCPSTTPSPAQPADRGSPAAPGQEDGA
Chain of B-RAF/C-RAF dimerization (P15056 whole entry): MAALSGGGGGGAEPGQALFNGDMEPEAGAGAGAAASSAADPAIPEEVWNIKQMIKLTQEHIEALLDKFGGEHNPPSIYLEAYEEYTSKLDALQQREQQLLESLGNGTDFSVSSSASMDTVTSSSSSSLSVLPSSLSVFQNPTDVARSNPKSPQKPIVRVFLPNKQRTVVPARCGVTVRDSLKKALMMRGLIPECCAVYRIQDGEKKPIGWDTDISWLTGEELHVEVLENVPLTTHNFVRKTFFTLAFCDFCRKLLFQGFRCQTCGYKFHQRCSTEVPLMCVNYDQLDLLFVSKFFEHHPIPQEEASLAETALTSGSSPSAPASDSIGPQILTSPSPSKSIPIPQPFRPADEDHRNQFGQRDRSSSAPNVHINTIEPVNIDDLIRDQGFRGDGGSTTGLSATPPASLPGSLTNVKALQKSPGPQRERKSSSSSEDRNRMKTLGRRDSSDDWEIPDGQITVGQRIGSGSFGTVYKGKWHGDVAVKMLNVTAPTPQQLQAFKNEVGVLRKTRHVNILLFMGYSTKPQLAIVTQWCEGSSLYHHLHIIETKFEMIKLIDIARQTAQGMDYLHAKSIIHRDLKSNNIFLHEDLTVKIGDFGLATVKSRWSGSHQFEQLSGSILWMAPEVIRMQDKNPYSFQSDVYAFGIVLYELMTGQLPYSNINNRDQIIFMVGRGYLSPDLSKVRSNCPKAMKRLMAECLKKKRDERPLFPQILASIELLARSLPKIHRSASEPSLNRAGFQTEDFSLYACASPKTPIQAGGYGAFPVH
Chain of CDC2L1 (P21127 whole entry): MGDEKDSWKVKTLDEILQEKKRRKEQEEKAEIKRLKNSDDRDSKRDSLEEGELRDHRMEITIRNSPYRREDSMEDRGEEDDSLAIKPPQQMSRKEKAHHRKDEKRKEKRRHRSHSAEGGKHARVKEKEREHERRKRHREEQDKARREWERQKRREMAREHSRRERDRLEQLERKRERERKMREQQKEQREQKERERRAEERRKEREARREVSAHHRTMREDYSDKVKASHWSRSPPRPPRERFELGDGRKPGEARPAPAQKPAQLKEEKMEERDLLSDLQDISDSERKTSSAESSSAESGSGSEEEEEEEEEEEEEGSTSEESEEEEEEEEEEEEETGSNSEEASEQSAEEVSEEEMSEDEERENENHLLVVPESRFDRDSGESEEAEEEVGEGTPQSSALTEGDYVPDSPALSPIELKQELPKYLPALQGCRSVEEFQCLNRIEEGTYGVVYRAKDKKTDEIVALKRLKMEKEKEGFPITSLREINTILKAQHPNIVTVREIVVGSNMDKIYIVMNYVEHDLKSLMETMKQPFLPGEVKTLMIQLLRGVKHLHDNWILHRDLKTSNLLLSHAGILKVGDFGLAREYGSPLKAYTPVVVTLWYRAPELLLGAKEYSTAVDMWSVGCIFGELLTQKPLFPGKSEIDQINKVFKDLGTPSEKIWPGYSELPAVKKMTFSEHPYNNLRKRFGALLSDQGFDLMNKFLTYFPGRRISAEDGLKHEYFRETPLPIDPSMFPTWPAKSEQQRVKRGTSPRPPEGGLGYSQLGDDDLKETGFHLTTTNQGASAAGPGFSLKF
Chain of BMX (P51813 whole entry): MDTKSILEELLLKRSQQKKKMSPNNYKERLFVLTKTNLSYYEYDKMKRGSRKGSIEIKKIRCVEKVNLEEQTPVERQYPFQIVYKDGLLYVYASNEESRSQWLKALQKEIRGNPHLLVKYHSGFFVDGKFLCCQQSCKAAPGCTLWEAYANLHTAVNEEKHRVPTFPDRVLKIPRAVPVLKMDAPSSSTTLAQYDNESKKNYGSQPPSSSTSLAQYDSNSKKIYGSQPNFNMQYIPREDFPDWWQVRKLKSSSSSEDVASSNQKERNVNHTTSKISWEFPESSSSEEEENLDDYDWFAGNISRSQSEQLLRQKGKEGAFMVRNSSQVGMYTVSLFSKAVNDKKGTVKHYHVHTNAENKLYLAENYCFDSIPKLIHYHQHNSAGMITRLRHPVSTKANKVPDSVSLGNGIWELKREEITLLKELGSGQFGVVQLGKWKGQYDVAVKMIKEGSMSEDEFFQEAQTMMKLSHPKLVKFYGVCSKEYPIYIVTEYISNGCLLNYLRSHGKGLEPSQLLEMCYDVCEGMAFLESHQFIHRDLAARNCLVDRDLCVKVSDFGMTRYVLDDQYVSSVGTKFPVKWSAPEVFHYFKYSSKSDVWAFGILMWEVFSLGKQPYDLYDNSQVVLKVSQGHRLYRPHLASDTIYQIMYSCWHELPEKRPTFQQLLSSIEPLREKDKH
Chain of PIK3CA (P42336 whole entry): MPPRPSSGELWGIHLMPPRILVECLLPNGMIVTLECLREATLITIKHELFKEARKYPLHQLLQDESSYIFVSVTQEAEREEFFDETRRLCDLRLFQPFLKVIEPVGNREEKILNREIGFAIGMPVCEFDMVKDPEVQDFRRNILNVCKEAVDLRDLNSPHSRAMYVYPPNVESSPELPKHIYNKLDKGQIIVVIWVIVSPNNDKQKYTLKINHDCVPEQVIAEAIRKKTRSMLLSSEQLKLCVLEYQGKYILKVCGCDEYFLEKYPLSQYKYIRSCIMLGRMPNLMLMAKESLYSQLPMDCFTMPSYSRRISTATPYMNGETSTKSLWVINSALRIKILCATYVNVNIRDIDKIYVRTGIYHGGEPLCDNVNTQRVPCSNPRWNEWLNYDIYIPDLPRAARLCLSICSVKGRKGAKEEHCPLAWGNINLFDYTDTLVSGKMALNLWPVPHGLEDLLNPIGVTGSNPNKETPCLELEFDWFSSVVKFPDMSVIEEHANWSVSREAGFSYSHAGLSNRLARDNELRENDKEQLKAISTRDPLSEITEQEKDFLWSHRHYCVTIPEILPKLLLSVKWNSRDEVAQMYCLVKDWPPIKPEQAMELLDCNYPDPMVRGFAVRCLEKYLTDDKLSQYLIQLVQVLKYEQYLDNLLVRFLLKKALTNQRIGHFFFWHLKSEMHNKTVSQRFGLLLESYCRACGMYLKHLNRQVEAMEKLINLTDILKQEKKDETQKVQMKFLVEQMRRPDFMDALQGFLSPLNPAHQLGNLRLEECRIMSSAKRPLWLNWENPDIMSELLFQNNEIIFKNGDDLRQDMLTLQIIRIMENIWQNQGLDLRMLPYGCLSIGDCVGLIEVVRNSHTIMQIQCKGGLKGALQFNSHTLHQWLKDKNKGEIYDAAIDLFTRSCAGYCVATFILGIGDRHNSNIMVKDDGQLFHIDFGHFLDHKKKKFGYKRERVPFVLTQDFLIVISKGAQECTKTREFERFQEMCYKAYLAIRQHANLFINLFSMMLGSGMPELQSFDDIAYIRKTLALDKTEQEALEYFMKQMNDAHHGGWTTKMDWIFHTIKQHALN
Chain of CDK9 (P50750 whole entry): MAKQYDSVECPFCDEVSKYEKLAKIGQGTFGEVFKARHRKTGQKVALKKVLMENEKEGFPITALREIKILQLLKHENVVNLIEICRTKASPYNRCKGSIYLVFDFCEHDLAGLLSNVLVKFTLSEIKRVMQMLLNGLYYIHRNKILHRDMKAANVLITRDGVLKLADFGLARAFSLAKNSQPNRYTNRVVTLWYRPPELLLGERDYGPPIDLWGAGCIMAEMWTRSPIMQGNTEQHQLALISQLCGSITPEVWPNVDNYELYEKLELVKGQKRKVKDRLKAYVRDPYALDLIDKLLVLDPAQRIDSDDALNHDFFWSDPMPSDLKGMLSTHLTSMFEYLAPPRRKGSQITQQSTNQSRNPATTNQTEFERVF

SMILES: CSc1nc(N)cc(Oc2ccc(-c3nnc(Nc4cccc(C(F)(F)F)c4)[nH]3)cc2)n1 [Compound 6]
- % Control (CDC2L1): 70%
- RAF dimerization and pS338-CRAF (B-RAF/C-RAF dimerization): prevent RAF dimerization and pS338-CRAF
- EC50 (XPA1-RFP): 280 nM
- EC50 (1205Lu): 830 nM
- % Control (CDK5): 88%
- % Control (RIPK1): 84%
- % Control (IGF1R): 100%
- % Control (KIT(D616V)): 76%
- % Control (JNK1): 98%
- % Control (FLT3(D835H)): 17%
- % Control (FLT3 D835Y): 18%
- % Control (KIT(V559D)): 0.1%
- % Control (MEK1): 84%
- % Control (PIK3CA): 100%
- % Control (AXL): 87%
- % Control (EPHB4): 94%
- % Control (PRKCD): 74%
- % Control (FAK): 100%
- % Control (AMPK-alpha1): 72%
- % Control (BMX): 97%
- % Control (FLT1): 81%
- % Control (PAK4): 100%
- % Control (RIOK3): 100%
- % Control (CLK2): 84%
- % Control (KIT(V559D, V654A)): 15%
- % Control (FLT3(ITD)): 3.1%
- % Control (FLT4): 100%
- % Control (FLT3(N841I)): 3.1%
- % Control (CDK9): 100%
- % Control (PRKD1): 100%
- lymphangiogenesis in lymph nodes [1]: clearly showed inhibition of lymphangiogenesis
- % Control (PFTK1): 71%
